In ChEMBL document CHEMBL1145679, “Perhydrogenation of tabersonine, ans Aspidiosperma indole alkaloid” (J Nat Prod, 1997) one finds Ki, Activity and IC50 data, which are given here for three molecules.

SMILES strings stand for the structures. Activity calls are given as the source filed them. No cut-off for these calls is given here. A value given as a limit tells only on which side of the number the result lay.

Test [1] can be described thus: Displacement of radioligand from rat sodium channel batrachotoxin binding site by liquid scintillation spectrometry.
Test [2] has as its target T1, Adrenergic receptor alpha-1 (Rattus norvegicus, UniProt P15823+P23944+P43140).
T1 sequence (P15823 whole entry): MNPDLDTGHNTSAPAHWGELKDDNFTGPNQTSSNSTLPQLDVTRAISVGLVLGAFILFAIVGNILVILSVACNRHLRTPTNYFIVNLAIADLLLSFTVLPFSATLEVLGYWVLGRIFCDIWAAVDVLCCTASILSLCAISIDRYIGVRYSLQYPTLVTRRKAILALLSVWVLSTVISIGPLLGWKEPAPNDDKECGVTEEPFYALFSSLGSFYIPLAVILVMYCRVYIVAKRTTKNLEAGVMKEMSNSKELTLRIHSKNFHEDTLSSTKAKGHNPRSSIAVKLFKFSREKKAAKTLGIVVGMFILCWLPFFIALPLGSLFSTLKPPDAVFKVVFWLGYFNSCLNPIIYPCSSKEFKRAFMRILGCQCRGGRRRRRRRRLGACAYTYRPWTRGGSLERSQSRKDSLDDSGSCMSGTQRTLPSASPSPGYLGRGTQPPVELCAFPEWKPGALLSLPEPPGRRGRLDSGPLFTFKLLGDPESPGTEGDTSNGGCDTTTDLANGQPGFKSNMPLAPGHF
T1 sequence (P23944 whole entry): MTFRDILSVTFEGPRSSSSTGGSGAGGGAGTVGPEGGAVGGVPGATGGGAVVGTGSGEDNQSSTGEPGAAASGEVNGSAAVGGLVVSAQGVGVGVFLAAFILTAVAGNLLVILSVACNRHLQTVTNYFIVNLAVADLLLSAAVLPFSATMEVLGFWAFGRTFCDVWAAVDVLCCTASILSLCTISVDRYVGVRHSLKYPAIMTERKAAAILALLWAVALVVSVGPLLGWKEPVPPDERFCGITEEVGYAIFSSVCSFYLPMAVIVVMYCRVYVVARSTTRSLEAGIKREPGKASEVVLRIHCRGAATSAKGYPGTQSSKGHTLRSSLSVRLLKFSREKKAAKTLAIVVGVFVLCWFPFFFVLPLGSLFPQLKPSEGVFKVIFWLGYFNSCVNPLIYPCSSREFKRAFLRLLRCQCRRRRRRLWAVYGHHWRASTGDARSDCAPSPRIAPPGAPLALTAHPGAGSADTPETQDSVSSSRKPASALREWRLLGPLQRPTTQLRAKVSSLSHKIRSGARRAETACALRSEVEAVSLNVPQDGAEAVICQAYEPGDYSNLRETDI
T1 sequence (P43140 whole entry): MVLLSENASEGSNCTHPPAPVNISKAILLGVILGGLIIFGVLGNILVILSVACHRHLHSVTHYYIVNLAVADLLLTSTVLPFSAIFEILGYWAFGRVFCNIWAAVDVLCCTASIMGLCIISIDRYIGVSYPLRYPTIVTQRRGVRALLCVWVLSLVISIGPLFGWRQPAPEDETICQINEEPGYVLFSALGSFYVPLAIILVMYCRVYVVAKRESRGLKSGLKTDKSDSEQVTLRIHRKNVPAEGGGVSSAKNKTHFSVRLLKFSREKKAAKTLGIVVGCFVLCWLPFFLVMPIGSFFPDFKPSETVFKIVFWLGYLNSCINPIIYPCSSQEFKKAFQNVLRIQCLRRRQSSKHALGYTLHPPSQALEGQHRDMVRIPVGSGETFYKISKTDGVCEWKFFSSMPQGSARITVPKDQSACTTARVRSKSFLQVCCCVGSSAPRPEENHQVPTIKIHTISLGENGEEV
Put plainly: Displacement of radioligand from rat alpha1 adrenergic receptor by liquid scintillation spectrometry.

Test [3] in a line: Displacement of radioligand from glycine receptor by liquid scintillation spectrometry.
A short description of test [4]: Displacement of radioligand from GABAA receptor by liquid scintillation spectrometry.
A short description of test [5]: Displacement of radioligand from calcium channel by liquid scintillation spectrometry.
Test [6] in a line: Displacement of radioligand from muscarinic receptor by liquid scintillation spectrometry.
Test [7] deals with D(2) dopamine receptor (Homo sapiens) (UniProt P14416). Description: Displacement of radioligand from dopamine D2 receptor by liquid scintillation spectrometry.
The target of test [8] is T2, 5-hydroxytryptamine receptor 1A (Homo sapiens, UniProt P08908).
T2 sequence (P08908 whole entry): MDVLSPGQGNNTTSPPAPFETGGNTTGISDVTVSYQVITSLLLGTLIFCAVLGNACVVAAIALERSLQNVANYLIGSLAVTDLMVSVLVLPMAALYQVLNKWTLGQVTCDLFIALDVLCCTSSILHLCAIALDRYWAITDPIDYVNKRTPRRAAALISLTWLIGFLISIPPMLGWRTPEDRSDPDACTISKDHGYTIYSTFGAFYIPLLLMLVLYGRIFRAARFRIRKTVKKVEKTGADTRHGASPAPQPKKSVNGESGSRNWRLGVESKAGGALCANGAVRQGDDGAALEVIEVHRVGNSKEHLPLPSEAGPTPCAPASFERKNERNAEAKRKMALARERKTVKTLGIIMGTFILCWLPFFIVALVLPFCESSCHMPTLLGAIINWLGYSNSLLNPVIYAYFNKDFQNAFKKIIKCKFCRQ
Description: Displacement of radioligand from 5HT1A receptor by liquid scintillation spectrometry.

Test [9] has as its target T3, Glucocorticoid receptor (Homo sapiens) (UniProt P04150).
T3 sequence (whole entry): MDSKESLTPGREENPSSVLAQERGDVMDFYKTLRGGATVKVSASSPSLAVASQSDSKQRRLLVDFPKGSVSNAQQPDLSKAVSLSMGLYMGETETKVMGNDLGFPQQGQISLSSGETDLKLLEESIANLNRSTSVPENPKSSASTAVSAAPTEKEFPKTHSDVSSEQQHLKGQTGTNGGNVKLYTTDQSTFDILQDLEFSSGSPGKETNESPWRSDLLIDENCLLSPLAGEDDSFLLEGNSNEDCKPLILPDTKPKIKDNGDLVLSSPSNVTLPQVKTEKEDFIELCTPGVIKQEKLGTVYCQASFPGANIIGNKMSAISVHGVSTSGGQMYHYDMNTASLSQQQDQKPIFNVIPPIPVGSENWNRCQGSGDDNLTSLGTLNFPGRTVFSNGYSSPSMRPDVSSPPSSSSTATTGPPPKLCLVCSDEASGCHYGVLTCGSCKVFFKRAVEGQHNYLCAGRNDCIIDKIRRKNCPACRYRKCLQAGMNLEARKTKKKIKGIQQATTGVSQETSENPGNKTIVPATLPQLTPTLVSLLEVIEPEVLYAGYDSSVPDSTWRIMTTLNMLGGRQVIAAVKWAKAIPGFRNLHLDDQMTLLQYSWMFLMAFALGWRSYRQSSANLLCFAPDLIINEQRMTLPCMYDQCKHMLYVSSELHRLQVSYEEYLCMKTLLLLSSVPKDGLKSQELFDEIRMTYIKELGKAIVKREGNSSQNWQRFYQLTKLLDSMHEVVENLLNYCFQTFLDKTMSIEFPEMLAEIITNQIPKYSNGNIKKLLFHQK
Put plainly: Displacement of radioligand from glucocorticoid receptor by liquid scintillation spectrometry.

The nature of test [10]: Displacement of radioligand from AMPA receptor by liquid scintillation spectrometry.
In test [11] the target is T4, Adrenergic receptor alpha-2 (Rattus norvegicus, UniProt P22086+P19328+P22909).
T4 sequence (P22086 whole entry): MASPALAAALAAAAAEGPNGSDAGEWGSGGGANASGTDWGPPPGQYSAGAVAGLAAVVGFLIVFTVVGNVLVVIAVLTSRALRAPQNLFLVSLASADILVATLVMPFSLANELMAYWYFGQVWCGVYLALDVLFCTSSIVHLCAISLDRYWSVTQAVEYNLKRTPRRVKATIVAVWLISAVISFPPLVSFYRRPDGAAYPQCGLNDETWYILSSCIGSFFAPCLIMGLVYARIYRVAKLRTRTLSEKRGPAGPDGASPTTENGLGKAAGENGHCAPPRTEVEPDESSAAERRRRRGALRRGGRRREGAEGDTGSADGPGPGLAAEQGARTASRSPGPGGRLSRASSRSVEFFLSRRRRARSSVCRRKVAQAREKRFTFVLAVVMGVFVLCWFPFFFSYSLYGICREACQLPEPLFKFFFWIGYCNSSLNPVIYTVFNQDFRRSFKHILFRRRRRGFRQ
T4 sequence (P19328 whole entry): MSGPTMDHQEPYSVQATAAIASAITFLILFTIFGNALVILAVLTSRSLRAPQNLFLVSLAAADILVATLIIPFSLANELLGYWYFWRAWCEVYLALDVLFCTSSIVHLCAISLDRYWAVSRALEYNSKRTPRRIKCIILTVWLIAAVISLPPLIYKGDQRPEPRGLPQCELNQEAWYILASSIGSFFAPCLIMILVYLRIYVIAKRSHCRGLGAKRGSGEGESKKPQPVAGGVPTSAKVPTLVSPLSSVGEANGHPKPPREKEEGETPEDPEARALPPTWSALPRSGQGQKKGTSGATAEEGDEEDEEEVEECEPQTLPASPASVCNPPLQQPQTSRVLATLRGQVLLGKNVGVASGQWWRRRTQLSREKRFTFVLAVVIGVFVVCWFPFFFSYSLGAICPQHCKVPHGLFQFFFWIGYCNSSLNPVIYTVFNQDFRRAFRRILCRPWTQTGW
T4 sequence (P22909 whole entry): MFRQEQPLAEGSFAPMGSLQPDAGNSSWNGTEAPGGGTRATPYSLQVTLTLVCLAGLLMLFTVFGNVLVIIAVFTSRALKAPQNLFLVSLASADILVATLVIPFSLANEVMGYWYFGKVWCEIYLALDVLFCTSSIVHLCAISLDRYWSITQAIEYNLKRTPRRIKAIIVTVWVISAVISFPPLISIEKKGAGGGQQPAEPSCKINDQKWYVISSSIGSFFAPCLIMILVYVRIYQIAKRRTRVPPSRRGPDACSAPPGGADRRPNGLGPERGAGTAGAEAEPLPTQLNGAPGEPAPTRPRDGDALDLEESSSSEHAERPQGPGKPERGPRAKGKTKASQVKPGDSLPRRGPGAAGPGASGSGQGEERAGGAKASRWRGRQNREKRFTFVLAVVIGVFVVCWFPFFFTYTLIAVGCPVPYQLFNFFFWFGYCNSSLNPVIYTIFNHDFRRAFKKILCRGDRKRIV
Put plainly: Displacement of radioligand from rat alpha2 adrenergic receptor by liquid scintillation spectrometry.

Test [12] is described as follows: Displacement of radioligand from GABAB receptor by liquid scintillation spectrometry.
The target in test [13] is T5, 5-hydroxytryptamine receptor 3A (Homo sapiens, UniProt P46098).
T5 sequence (P46098 whole entry): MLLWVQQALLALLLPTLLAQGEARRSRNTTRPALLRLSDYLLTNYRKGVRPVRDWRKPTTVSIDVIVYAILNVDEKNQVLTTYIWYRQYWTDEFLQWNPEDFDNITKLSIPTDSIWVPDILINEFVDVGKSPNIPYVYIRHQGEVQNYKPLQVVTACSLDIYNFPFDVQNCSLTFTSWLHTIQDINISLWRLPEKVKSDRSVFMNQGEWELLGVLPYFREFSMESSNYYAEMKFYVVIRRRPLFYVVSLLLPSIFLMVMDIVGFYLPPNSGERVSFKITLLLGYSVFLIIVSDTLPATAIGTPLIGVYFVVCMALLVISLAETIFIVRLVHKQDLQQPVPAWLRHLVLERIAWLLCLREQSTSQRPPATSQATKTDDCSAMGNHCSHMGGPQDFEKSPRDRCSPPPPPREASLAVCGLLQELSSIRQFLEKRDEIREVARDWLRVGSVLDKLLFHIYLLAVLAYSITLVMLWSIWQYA
Description: Displacement of radioligand from 5HT3 receptor by liquid scintillation spectrometry.

A short description of test [14]: Displacement of radioligand from potassium channel by liquid scintillation spectrometry.
The target in test [15] is 5-hydroxytryptamine receptor 2A (Homo sapiens, UniProt P28223). Put plainly: Displacement of radioligand from 5HT2 receptor by liquid scintillation spectrometry.
The target in test [16] is D(1A) dopamine receptor (Homo sapiens) (UniProt P21728). Description: Displacement of radioligand from dopamine D1 receptor by liquid scintillation spectrometry.
A short description of test [17]: Displacement of radioligand from NMDA receptor by liquid scintillation spectrometry.

Chain of D(2) dopamine receptor (Homo sapiens) (P14416 whole entry): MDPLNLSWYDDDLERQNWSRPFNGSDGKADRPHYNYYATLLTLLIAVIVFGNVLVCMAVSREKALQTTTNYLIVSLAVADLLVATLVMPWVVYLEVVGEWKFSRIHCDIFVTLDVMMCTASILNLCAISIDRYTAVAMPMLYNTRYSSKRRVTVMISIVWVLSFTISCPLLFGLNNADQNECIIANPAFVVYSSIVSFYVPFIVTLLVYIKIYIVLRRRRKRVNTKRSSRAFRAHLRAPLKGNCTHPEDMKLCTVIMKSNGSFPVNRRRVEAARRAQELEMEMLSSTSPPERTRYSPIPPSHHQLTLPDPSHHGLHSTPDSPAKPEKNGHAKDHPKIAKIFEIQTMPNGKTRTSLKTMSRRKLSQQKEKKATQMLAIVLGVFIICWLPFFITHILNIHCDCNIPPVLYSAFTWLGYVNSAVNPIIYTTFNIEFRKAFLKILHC
Chain of 5-hydroxytryptamine receptor 2A (P28223 whole entry): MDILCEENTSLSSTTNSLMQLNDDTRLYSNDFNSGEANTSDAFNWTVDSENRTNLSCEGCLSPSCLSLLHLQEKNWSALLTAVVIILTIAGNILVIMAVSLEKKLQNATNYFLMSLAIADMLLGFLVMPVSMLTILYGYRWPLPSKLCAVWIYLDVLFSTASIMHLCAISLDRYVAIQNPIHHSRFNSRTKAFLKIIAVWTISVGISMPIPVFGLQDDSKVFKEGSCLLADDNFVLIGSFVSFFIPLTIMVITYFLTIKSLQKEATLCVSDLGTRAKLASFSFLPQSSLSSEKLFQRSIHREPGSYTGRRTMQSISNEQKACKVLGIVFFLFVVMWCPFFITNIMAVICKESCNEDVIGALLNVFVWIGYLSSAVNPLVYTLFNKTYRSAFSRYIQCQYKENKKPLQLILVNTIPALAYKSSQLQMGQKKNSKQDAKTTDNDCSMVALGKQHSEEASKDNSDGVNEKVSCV
Chain of D(1A) dopamine receptor (Homo sapiens) (P21728 whole entry): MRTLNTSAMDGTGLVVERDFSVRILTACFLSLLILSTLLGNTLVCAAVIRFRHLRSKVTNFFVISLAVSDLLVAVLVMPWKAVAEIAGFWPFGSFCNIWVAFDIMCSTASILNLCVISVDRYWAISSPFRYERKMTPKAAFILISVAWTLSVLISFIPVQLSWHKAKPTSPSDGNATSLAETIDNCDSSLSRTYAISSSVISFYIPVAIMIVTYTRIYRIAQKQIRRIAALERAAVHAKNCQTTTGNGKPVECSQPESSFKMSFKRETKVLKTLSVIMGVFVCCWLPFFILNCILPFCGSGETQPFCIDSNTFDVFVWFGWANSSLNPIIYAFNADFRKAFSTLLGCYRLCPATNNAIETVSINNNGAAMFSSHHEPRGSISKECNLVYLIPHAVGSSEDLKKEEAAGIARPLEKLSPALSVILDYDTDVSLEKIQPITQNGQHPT

On to `COc1ccc(C(=O)O[C@H]2CC[C@@]3(C)[C@@H]4CC[C@H]5[C@]6(O)C[C@H](O)[C@@]7(O)[C@@H](CN8C[C@@H](C)CC[C@H]8[C@@]7(C)O)[C@]6(O)C[C@@]53O[C@]24O)cc1OC` [VERATRIDINE], for which affinity in [1] was put at a Ki of 2.1 µM.
`CC[C@]12CCCN3CC[C@@]4([C@H]5CCCC[C@H]5N[C@H]4[C@@H](C(=O)[O-])C1)[C@@H]32.[Na+]`: the values for the inhibitory constant (Ki) in [2], in test [11] and in [1] were above 100 µM, above 100 µM and above 10 µM, respectively. In addition, the result in [3], in test [4], in test [5], in [6], in [7] and in test [9] was inactive. The result in test [10], in test [12], in test [14], in [16] and in test [17] was inactive. The IC50 (commonly the concentration needed to halve the response being measured) in test [8] is above 10 µM; in [13], above 100 µM; in [15], above 10 µM.
Regarding `CC[C@]12CCCN3CC[C@@]4([C@H]5CCCC[C@H]5N[C@H]4[C@@H](C(=O)OC)C1)[C@@H]32.Cl.Cl`, the Ki (in general, the dissociation constant of the complex between target and ligand, obtained from inhibition or displacement) in test [2] was above 100 µM; in [11], above 100 µM; in test [1], 3.7 µM. For the same molecule, the result in test [3], in test [4], in test [5], in test [6], in test [7] and in test [9] was inactive. For the same molecule, the outcome in test [10], in test [12], in test [14], in [16] and in test [17] was inactive. Besides, the IC50 was above 10 µM in test [8], above 100 µM in [13] and above 10 µM in test [15].
